Data set [1] is described as follows: Concentration in rat plasma after subcutaneous administration. As to conditions: sc, rats, 50 mg/kg, an hour after administration. The data set is classed as in vivo. The procedure: The compounds of the present invention are better absorbed by the subcutaneous route in mammals such as rats or rabbits, as compared with the epoxysuccinic acid derivatives of the German Patent Laid Open Application described above and Chemical Abstracts, 87, 68129a (1977). To determine absorption, these compounds were administered subcutaneously to rats at a dose of 50 mg/kg, and the concentration of the test compound in rat plasma at an hour after the administration is shown in following Table 1.

Data set [2] addresses T1, CANP prepared from a muscle of hereditary muscular dystrophy chicken (Gallus gallus, UniProt P00789).
T1 construct: CANP prepared from a muscle of hereditary muscular dystrophy chicken; from tissue; host or cells: muscle of hereditary muscular dystrophy chicken
T1 sequence (P00789 1-705): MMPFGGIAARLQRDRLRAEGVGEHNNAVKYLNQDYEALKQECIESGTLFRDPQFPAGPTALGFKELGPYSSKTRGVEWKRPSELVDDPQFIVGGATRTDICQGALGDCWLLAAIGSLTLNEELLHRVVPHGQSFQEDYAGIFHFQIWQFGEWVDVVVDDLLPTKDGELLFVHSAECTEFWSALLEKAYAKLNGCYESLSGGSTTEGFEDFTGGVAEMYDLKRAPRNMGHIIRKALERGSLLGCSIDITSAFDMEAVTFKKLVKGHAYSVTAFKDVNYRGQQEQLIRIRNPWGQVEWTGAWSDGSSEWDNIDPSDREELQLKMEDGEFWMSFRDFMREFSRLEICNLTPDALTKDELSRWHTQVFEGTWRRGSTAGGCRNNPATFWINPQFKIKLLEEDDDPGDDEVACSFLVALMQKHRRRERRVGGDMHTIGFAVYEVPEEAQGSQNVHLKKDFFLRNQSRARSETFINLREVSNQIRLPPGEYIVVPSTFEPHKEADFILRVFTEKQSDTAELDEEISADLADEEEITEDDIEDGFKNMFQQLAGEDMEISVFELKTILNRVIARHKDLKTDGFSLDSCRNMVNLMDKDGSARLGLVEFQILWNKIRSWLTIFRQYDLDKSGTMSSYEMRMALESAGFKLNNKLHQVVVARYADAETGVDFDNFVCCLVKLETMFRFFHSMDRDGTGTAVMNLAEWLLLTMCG
As to the kind of experiment: CANP inhibitory activity (method of Ishiura et al.). The data set is classed as biochemical. The following applies: 50% inhibition as molar ratio to the enzyme. The procedure:
Their muscular dystrophy inhibitory activity was assayed by the method of Ishiura et al., [J. Biochem., 84, 225 (1978)] using CANP prepared from a muscle of hereditary muscular dystrophy chicken, and the resulting value for 50% inhibition in the molar ratios for the enzyme expressed as ID50 (mole/mole) is shown in Table 1 below.

In data set [3] the target is T2, papain (Carica papaya, UniProt P00784).
T2 construct: purchased Sigma Chem. Co
T2 sequence (P00784 134-345): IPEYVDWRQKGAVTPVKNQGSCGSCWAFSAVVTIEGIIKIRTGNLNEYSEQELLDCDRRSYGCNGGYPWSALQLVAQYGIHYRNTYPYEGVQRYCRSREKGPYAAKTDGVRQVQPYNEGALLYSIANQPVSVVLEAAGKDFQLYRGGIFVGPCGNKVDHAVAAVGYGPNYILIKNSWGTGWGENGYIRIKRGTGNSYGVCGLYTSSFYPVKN
The experiment in a line: Papain inhibitory activity (method of K. Hanada et al.). Format: biochemical. The following applies: amount of inhibitor for 50% inhibition; papain 80 μg/ml, Sigma, twice crystallized. The procedure: Papain inhibitory activity of the compounds of the present invention was assayed by the method of K. Hanada et al [Argic. Biol. Chem., 42, (3)523(1978)] using papain (80 μg/ml, Sigma Chem. Co.) after twice crystallization.

The conditions of data set [4]: in vivo. The procedure:
The response was evaluated by the blueing spot at 15 minutes after the dye injection.

Take `CC(C)C[C@H](NC(=O)C1OC1C(=O)O)C(=O)NCCCCCN` (mixture of isomers) [Compound 2, N-[N-(DL-3-trans-carboxyoxirane-2-carbonyl)-L-leucyl]-1,5-diaminopentane]: the concentration at 1 h in data set [1] is 20000 ng/mL. Moreover, the “CANP Inhibitory Activity ID50 (mole/mole)” value in data set [2] worked out at 54 mole/mole. Also, in data set [3], the “Papain inhibitory activity ID50” value turned out to be 0.105 µg. In addition, the “Acceleration of vascular permeability, Relative effect (%) to E-64” value (shortened to “Acceleration … Relative effect (%) to E-64”) in data set [4] is reported as 2.3%.
Take `CC(C)C[C@H](NC(=O)C1OC1C(=O)O)C(=O)NCCCCCCCNC(=O)OCc1ccccc1` (mixture of isomers) [Compound 3, N-[N-(DL-3-trans-carboxyoxirane-2-carbonyl)-L-leucyl]-N'-benzyloxycarbonyl-1,7-diaminoheptane]: the concentration at 1 h in data set [1] is 11000 ng/mL. Further, the “CANP Inhibitory Activity ID50 (mole/mole)” value in data set [2] turned out to be 20 mole/mole. Moreover, the “Papain inhibitory activity ID50” value in data set [3] came to 0.203 µg. Moreover, in data set [4], the “Acceleration … Relative effect (%) to E-64” value came out at 2.4%.
`CC(C)C[C@H](NC(=O)[C@H]1O[C@@H]1C(=O)O)C(=O)NCCCCCCCN` [Compound 1, N-[N-(L-3-trans-carboxyoxirane-2-carbonyl)-L-leucyl]-1,7-diaminoheptane] returned a concentration at 1 h in data set [1] of 15000 ng/mL. In addition, in data set [2], the “CANP Inhibitory Activity ID50 (mole/mole)” value was 33 mole/mole. The “Papain inhibitory activity ID50” value in data set [3] amounted to 0.103 µg. Moreover, the “Acceleration … Relative effect (%) to E-64” value in data set [4] stood at 2.8%.
As for `CC(C)C[C@H](NC(=O)[C@H]1O[C@@H]1C(=O)O)C(=O)NCCCCN=C(N)N` [Compound E-64, N-[N-(L-3-trans-carboxyoxirane-2-carbonyl)-L-leucyl]agmatine, reference compound], the “Acceleration … Relative effect (%) to E-64” value in data set [4] is recorded as 100.0%.
Take `CCOC(=O)C1OC1C(=O)N[C@@H](CC(C)C)C(=O)NCCCCNC(=O)OCc1ccccc1` (stereo partly drawn) [F, N--[N--(DL3-trans-ethoxycarbonyloxirane-2-carbonyl)-L-leucyl] N'--benzyloxycarbonyl1,4-diaminobutane, reference compound]: in data set [1], the concentration at 1 h is < 1000 ng/mL. Further, in data set [2], the “CANP Inhibitory Activity ID50 (mole/mole)” value was 480 mole/mole.
